Reference: US10036052B2, “Method for producing biogenic substances” (BRANDENBURGISCHE TECHNISCHE UNIVERSITÄT COTTBUS-SENFTENBERG, priority 2013, dated 2018)

Test system: HepaFH3 (proliferation-competent liver cells)
Conditions: human, 100 μM
Protocol: HepG2 cells (ATCC HB-8065) are cultivated in the medium DMEM PAA (Pasching, Austria), to which is added 10% FCS Gold, 2 mM L-glutamine, 100 U/mL penicillin, and 0.1 mg/mL streptomycin. Primary human hepatocytes (pHHs) are commercially obtained from, e.g., TebuBio (Le Perray-en-Yvelines, France) or Promocell (Heidelberg, Germany). The cells are seeded onto 50 μg/mL collagen type I (rat tail, BD Biosciences, San Jose, USA) coated cell culture plates and cultivated at 37° C. under 5% CO2 in hepatocyte growth medium (Promocell GmbH, Heidelberg, Germany) or equivalent cell culture media of other manufacturers known to the person skilled in the art. These pHHs can be used for metabolite production immediately or after production of proliferation-competent liver cells. To accomplish this, proliferation genes are transduced into the cells using a lentiviral vector. This technique is described in WO2009/030217A2 (Braspenning et al. (2007)). […] The proliferating hepatocyte clones (cell lines) are characterized with respect to their liver cell markers. […] For definition of sequences to generate primers, the person skilled in the art can use databases such as the NCBI GenBank® (http://www.ncbi.nlm.nih.gov/genbank) or the European Nucleotide Archive (http://www.ebi.ac.uk/ena/). For phase I, the most relevant enzymes are those of the cytochrome P450 (CYP) family. […]

O=C(O)Cc1ccccc1Nc1c(Cl)cccc1Cl [Diclofenac]
Metabolite 4′-OH-diclofenac formed: 7.13 ± 2.22 pmol/(min*10^6 cells)
